Results: patent US11299487B2, “Compounds and compositions as modulators of TLR signaling” (Neuropore Therapies, Inc., priority 2019, dated 2022)

What was measured:
Assay type in all cases: cell-based
human TLR2 [1] = molecular target: T1, human TLR2 (Homo sapiens, UniProt O60603); experiment: HEK-Blue hTLR2 antagonism assay (SEAP reporter) with agonist Pam2CSK4 (TLR2/6 agonist); settings: Table B; HEK-Blue hTLR2 cells, ~3×EC50 Pam2CSK4, 18 h, SEAP OD 655 nm, 8-point dilutions
T1 construct: host or cells: HEK-Blue hTLR2 (HEK-293)

human TLR2 [2] = molecular target: T1, human TLR2; experiment: HEK-Blue hTLR2 antagonism assay (SEAP reporter) with agonist Pam3CSK4 (TLR1/2 agonist); settings: Table B; HEK-Blue hTLR2 cells, ~3×EC50 Pam3CSK4, 18 h, SEAP OD 655 nm, 8-point dilutions
human TLR9 = molecular target: T2, human TLR9 (Homo sapiens, UniProt Q9NR96); experiment: HEK-Blue hTLR9 assay (SEAP reporter) with agonist ODN 2006; settings: Table B; HEK-Blue hTLR9 cells, ~3×EC50 ODN 2006, 18 h; exact values 8-point dilutions, approximate (~ or <) 4-point dilutions; read-out: ~IC50 (μM) with ODN2006
T2 construct: host or cells: HEK-Blue hTLR9 (HEK-293)
T2 sequence (Q9NR96 26-1032): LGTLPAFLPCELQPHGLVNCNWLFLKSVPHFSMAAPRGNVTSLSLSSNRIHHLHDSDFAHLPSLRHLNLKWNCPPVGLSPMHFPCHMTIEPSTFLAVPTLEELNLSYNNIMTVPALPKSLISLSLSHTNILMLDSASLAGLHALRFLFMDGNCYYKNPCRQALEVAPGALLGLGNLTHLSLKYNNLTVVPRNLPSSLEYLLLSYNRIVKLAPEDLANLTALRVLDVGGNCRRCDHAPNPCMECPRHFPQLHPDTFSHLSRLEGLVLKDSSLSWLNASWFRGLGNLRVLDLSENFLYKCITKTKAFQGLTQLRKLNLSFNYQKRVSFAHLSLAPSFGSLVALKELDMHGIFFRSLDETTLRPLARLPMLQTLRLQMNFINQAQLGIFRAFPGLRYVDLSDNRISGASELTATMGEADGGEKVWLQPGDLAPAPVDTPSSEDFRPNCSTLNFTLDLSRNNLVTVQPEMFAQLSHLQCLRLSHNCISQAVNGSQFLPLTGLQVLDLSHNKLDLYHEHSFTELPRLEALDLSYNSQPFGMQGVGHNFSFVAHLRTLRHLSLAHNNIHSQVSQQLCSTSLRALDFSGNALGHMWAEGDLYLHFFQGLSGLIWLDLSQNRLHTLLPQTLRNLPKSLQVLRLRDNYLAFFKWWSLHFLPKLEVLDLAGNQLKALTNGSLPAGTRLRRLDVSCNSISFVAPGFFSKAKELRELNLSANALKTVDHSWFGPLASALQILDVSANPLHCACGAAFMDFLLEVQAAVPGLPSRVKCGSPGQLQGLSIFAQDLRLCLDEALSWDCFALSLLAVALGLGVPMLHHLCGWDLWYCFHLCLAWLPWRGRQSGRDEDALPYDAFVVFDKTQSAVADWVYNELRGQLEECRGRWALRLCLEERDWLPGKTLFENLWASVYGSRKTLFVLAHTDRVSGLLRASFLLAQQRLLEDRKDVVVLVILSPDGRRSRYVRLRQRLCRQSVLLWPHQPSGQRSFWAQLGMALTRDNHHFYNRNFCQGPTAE
Protocol: Synthetic ODNs (ODN 2006 (ODN7909), class B CpG oligonucleotide, TLR9 agonist) was obtained from InvivoGen and was dissolved in endotoxin-free water to a concentration 500 μM, vortexed until complete solubilization, and stored in aliquots at −20° C. Prior to addition to cells, an aliquot of the dissolved ligand was vortexed shortly and then was diluted in medium to 50 μM. The EC50 of the agonist for each assay run was determined by using 3-fold dilutions from the starting concentration 10 μM.
Test compounds were solubilized fresh to 10-20 mM stocks in DMSO and sonicated for 5-10 minutes in a water bath sonicator. Serial dilutions were prepared in DMSO, and then diluted in medium. The final concentration of DMSO used in the assay was 1%.
HEK-Blue hTLR9 reporter cells (InvivoGen) are HEK-293 cells stably expressing both the human TLR9 gene and a secreted embryonic alkaline phosphatase (SEAP) reporter construct downstream of NFκB promotor sites. HEK-Blue hTLR9 cells were cultured according to manufacturer's protocol using Dulbecco's Modified Eagle Medium (DMEM; Gibco) containing 1× GlutaMax (Gibco), 10% heat-inactivated Fetal Bovine Serum (Gibco), Pen-Strep (50 U/mL penicillin, 50 μg/mL streptomycin, Gibco), 100 μg/mL Normocin (InvivoGen), and the selective antibiotics, 10 μg/mL Blasticidin (InvivoGen), and 100 μg/mL Zeocin (InvivoGen). Quanti-Blue reagent (InvivoGen) for detection and quantification of secreted alkaline phosphatase was dissolved in 100 mL of endotoxin-free water, warmed to 37° C. for 30 minutes and then filtered using a 0.2 μm membrane.
On day 1, 50 μL of each test compound dilution in duplicates or a vehicle control was added to each well of a 96-well plate followed by addition of 150 μL of HEK-Blue hTLR9 cell suspension (1×10^5 cells/well) and incubated at 37° C./5% CO2 for 2 h. Next, 50 μL of an approximate 3×EC50 concentration of TLR9 agonist, ODN 2006, was added to the wells containing test compounds or the vehicle control. The plates were then incubated at 37° C./5% CO2 for 18 h. For each assay run, vehicle-treated HEK-Blue hTLR9 cells were treated with serial dilutions of agonist to determine EC50 values for the respective run.
On day 2, secreted alkaline phosphatase (SEAP) activity was detected in cell culture supernatants. In brief, 30 μL was collected from each well and transferred to a 96-well plate. Next, 200 μL of Quanti-Blue detection reagent was added to each well. Plates were incubated at 37° C. for 60 min. and SEAP activity was assessed by spectrophotometer OD reading at 655 nm. Table A and Table B show the activities of the compounds tested in HEK-Blue hTLR9 cells against ODN 2006. The activities of the compounds against ODN 2006 are presented as IC50 values which were defined as concentrations of the compounds where percent inhibition of the signal induced by agonist is equal to 50. Exact IC50 values were calculated based on 8-point dilutions for each compound. Approximate IC50 values (˜ or <) were calculated based on 4-point dilutions for each compound.

T1 sequence (O60603 21-784): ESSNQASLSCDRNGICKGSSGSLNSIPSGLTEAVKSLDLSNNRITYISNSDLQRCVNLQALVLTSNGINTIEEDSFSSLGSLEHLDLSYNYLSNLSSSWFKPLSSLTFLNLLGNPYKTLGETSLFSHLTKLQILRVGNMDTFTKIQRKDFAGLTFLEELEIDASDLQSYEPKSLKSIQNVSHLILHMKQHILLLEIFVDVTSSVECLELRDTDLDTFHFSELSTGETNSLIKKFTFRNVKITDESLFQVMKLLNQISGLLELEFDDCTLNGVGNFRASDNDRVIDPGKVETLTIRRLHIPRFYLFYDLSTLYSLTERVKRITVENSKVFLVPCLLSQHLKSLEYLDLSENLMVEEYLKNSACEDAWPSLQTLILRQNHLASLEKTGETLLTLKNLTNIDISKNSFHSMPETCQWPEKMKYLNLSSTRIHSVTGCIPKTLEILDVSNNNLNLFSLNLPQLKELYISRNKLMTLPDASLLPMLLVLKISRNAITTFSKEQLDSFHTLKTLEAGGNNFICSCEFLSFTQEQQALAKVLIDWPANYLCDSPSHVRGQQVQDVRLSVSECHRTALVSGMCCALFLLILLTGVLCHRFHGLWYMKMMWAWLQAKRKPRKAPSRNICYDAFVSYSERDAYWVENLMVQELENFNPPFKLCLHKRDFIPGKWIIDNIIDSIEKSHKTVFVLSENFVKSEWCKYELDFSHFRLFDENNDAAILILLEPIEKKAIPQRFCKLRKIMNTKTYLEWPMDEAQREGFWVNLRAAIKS

Row | IC50 (human TLR2 [1]) | IC50 (human TLR2 [2]) | IC50 (human TLR9) | Compound
1 | 2.6 µM | 1.7 µM | ~2.5 µM | O=Cc1cc(C(=O)Nc2cccc(N3CCCC3)c2)cc(F)c1O [Compound B71, 3-fluoro-5-formyl-4-hydroxy-N-(3-(pyrrolidin-1-yl)phenyl)benzamide]
2 | 0.6 µM | 0.3 µM | 0.3 µM | CC1(C)CCN(c2ccc(NC(=O)c3cc(F)c(O)c(C=O)c3)cc2)C1 [Compound B73, N-(4-(3,3-dimethylpyrrolidin-1-yl)phenyl)-3-fluoro-5-formyl-4-hydroxybenzamide]
3 | 1.6 µM | 0.8 µM | < 1.2 µM | O=Cc1cc(C(=O)Nc2ccc(N3CC4CC4C3)cc2)cc(F)c1O (stereo not drawn) [Compound B74, N-(4-(3-azabicyclo[3.1.0]hexan-3-yl)phenyl)-3-fluoro-5-formyl-4-hydroxybenzamide]
4 | 13 µM | 6 µM | ~4.7 µM | O=Cc1cc(C(=O)Nc2ccc(N3C[C@H]4COC[C@H]4C3)cc2)cc(F)c1O [Compound B75, 3-fluoro-5-formyl-4-hydroxy-N-(4-((3aR,6aS)-tetrahydro-1H-furo[3,4-c]pyrrol-5(3H)-yl)phenyl)benzamide]
5 | 1.2 µM | 0.6 µM | < 1.2 µM | O=Cc1cc(C(=O)Nc2ccc(N3C[C@H]4CCC[C@H]4C3)cc2)cc(F)c1O [Compound B76, 3-fluoro-5-formyl-N-(4-((3aR,6aS)-hexahydrocyclopenta[c]pyrrol-2(1H)-yl)phenyl)-4-hydroxybenzamide]
6 | 0.6 µM | 0.3 µM | < 1.2 µM | O=Cc1cc(C(=O)Nc2ccc(N3CC4(CCC4)C3)cc2)cc(F)c1O [Compound B77, N-(4-(2-azaspiro[3.3]heptan-2-yl)phenyl)-3-fluoro-5-formyl-4-hydroxybenzamide]
7 | 0.5 µM | 0.4 µM | 0.1 µM | CC1(C)CN(c2ccc(NC(=O)c3cc(F)c(O)c(C=O)c3)cn2)c2ccccc21 [Compound B87, N-(6-(3,3-dimethylindolin-1-yl)pyridin-3-yl)-3-fluoro-5-formyl-4-hydroxybenzamide]
